# Source: the supplement of paper PMC11061612
# Experiments:
# U-698-M [1] = assay: Bliss excess, mean over the matrix (fraction); higher = more synergy; conditions: U-[…], B-Cell Non-Hodgkin's Lymphoma
# Summary of the method: (§1)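 Cell lines grown in DMEM/F12 or RPMI with 10% FBS were plated in 1536-well plates and held 24 hours at 37°C, 5% CO2 before 72 hours of exposure to two-drug dose matrices, with DMSO typically at 0.2%. CellTiter-Glo 2.0 luminescence gave viability, which was converted to inhibition. Vehicle wells were set to 0 and blank wells to 1. Combination Emax is the second-highest inhibition in the matrix, and Bliss excess is the observed combination effect minus the expected EA + EB − EA·EB, where EA and EB are the single-agent effects.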
# U-698-M [2] = assay: combination Emax (second highest fraction inhibited in the dose matrix, 72 h); higher = more inhibition; conditions: B-Cell Non-Hodgkin's Lymphoma
# Summary of the method: as §1
# [3] = first compound max 1 µM, partner max 1 µM
# [4] = first compound max 1 µM, partner max 1 µM, 7x7
# [5] = first compound max 1 µM, partner max 10 µM, 7x7
# [6] = first compound max 3 µM, partner max 3 µM
# [7] = first compound max 1 µM, partner max 0.3 µM
# [8] = first compound max 1 µM, partner max 10 µM
# [9] = first compound max 1 µM, partner max 3 µM, 7x7
# [10] = first compound max 1 µM, partner max 0.3 µM, 7x7
# 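Wherever Bliss excess, mean over the matrix is given: after 72 h of two-drug dosing.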
smiles,measurement,setting,value
CN(C)CCCOc1ccc(-c2ccc3ncc4c(c3c2)n(C2CCOCC2)c(=O)n4C)cn1 [AZD0156] + C=CCn1c(=O)c2cnc(Nc3ccc(N4CCN(C)CC4)cc3)nc2n1-c1cccc(C(C)(C)O)n1 [AZD1775],Bliss excess,U-698-M [1]; [3],-0.0399
same,combination Emax,U-698-M [2]; [3],0.984
CN(C)CCCOc1ccc(-c2ccc3ncc4c(c3c2)n(C2CCOCC2)c(=O)n4C)cn1 [AZD0156] + CCN(CCO)CCCOc1ccc2c(Nc3cc(CC(=O)Nc4cccc(F)c4)[nH]n3)ncnc2c1 [AZD2811],Bliss excess,U-698-M [1]; [4],-0.014
same,combination Emax,U-698-M [2]; [4],0.168
CN(C)CCCOc1ccc(-c2ccc3ncc4c(c3c2)n(C2CCOCC2)c(=O)n4C)cn1 [AZD0156] + C[C@@H]1COCCN1C2=NC(=NC(=C2)C3(CC3)[S@](=N)(=O)C)C4=C5C=CNC5=NC=C4 [AZD6738],Bliss excess,U-698-M [1]; [5],0.0473
same,combination Emax,U-698-M [2]; [5],0.978
CN(C)CCCOc1ccc(-c2ccc3ncc4c(c3c2)n(C2CCOCC2)c(=O)n4C)cn1 [AZD0156] + O=C(c1cc(Cc2n[nH]c(=O)c3ccccc23)ccc1F)N1CCN(C(=O)C2CC2)CC1 [Olaparib],Bliss excess,U-698-M [1]; [6],0.0153
same,combination Emax,U-698-M [2]; [6],0.378
C=CCn1c(=O)c2cnc(Nc3ccc(N4CCN(C)CC4)cc3)nc2n1-c1cccc(C(C)(C)O)n1 [AZD1775] + C1CN(CCC1(C(=O)N[C@@H](CCO)C2=CC=C(C=C2)Cl)N)C3=NC=NC4=C3C=CN4 [Capivasertib],Bliss excess,U-698-M [1]; [6],-0.0654
same,combination Emax,U-698-M [2]; [6],0.959
C=CCn1c(=O)c2cnc(Nc3ccc(N4CCN(C)CC4)cc3)nc2n1-c1cccc(C(C)(C)O)n1 [AZD1775] + CCc1c2c(nc3ccc(O)cc13)-c1cc3c(c(=O)n1C2)COC(=O)[C@]3(O)CC [SN-38],Bliss excess,U-698-M [1]; [7],0.0364
same,combination Emax,"U-698-M [2]; first compound max 1 µM, partner max 0.3 µM, may be a limit of the assay",1
C=CCn1c(=O)c2cnc(Nc3ccc(N4CCN(C)CC4)cc3)nc2n1-c1cccc(C(C)(C)O)n1 [AZD1775] + C[C@@H]1COCCN1C2=NC(=NC(=C2)C3(CC3)[S@](=N)(=O)C)C4=C5C=CNC5=NC=C4 [AZD6738],Bliss excess,U-698-M [1]; [8],0.0479
same,combination Emax,"U-698-M [2]; first compound max 1 µM, partner max 10 µM, may be a limit of the assay",1
C=CCn1c(=O)c2cnc(Nc3ccc(N4CCN(C)CC4)cc3)nc2n1-c1cccc(C(C)(C)O)n1 [AZD1775] + Nc1ccn([C@@H]2O[C@H](CO)[C@@H](O)C2(F)F)c(=O)n1 [Gemcitabine],Bliss excess,U-698-M [1]; [7],0.116
same,combination Emax,U-698-M [2]; [7],0.956
C=CCn1c(=O)c2cnc(Nc3ccc(N4CCN(C)CC4)cc3)nc2n1-c1cccc(C(C)(C)O)n1 [AZD1775] + O=C(c1cc(Cc2n[nH]c(=O)c3ccccc23)ccc1F)N1CCN(C(=O)C2CC2)CC1 [Olaparib],Bliss excess,U-698-M [1]; [8],-0.0077
same,combination Emax,U-698-M [2]; [8],0.967
CCN(CCO)CCCOc1ccc2c(Nc3cc(CC(=O)Nc4cccc(F)c4)[nH]n3)ncnc2c1 [AZD2811] + C=CCn1c(=O)c2cnc(Nc3ccc(N4CCN(C)CC4)cc3)nc2n1-c1cccc(C(C)(C)O)n1 [AZD1775],Bliss excess,U-698-M [1]; [3],-0.0493
same,combination Emax,U-698-M [2]; [3],0.956
CCN(CCO)CCCOc1ccc2c(Nc3cc(CC(=O)Nc4cccc(F)c4)[nH]n3)ncnc2c1 [AZD2811] + C[C@@H]1COCCN1C2=NC(=NC(=C2)C3(CC3)[S@](=N)(=O)C)C4=C5C=CNC5=NC=C4 [AZD6738],Bliss excess,U-698-M [1]; [5],0.0016
same,combination Emax,U-698-M [2]; [5],0.956
CCN(CCO)CCCOc1ccc2c(Nc3cc(CC(=O)Nc4cccc(F)c4)[nH]n3)ncnc2c1 [AZD2811] + O=C(c1cc(Cc2n[nH]c(=O)c3ccccc23)ccc1F)N1CCN(C(=O)C2CC2)CC1 [Olaparib],Bliss excess,U-698-M [1]; [5],0.0384
same,combination Emax,U-698-M [2]; [5],0.479
CN(CCO)CC[C@H](CSc1ccccc1)Nc1ccc(S(=O)(=O)NC(=O)c2ccc(N3CCC([C@@H](O)c4ccccc4-c4ccc(Cl)cc4)CC3)cc2)cc1S(=O)(=O)C(F)(F)F [AZD4320] + C1CN(CCC1(C(=O)N[C@@H](CCO)C2=CC=C(C=C2)Cl)N)C3=NC=NC4=C3C=CN4 [Capivasertib],Bliss excess,U-698-M [1]; [9],0.0056
same,combination Emax,U-698-M [2]; [9],0.272
CN(CCO)CC[C@H](CSc1ccccc1)Nc1ccc(S(=O)(=O)NC(=O)c2ccc(N3CCC([C@@H](O)c4ccccc4-c4ccc(Cl)cc4)CC3)cc2)cc1S(=O)(=O)C(F)(F)F [AZD4320] + C=CCn1c(=O)c2cnc(Nc3ccc(N4CCN(C)CC4)cc3)nc2n1-c1cccc(C(C)(C)O)n1 [AZD1775],Bliss excess,U-698-M [1]; [3],-0.0221
same,combination Emax,U-698-M [2]; [3],0.931
CN(CCO)CC[C@H](CSc1ccccc1)Nc1ccc(S(=O)(=O)NC(=O)c2ccc(N3CCC([C@@H](O)c4ccccc4-c4ccc(Cl)cc4)CC3)cc2)cc1S(=O)(=O)C(F)(F)F [AZD4320] + CC(=O)O[C@H]1C(=O)[C@@]2(C)[C@H]([C@H](OC(=O)c3ccccc3)[C@]3(O)C[C@H](OC(=O)[C@H](O)[C@@H](NC(=O)c4ccccc4)c4ccccc4)C(C)=C1C3(C)C)[C@]1(OC(C)=O)CO[C@@H]1C[C@@H]2O [Paclitaxel],Bliss excess,U-698-M [1]; [9],-0.0109
same,combination Emax,"U-698-M [2]; first compound max 1 µM, partner max 3 µM, 7x7, may be a limit of the assay",1
CN(CCO)CC[C@H](CSc1ccccc1)Nc1ccc(S(=O)(=O)NC(=O)c2ccc(N3CCC([C@@H](O)c4ccccc4-c4ccc(Cl)cc4)CC3)cc2)cc1S(=O)(=O)C(F)(F)F [AZD4320] + CCN(CCO)CCCOc1ccc2c(Nc3cc(CC(=O)Nc4cccc(F)c4)[nH]n3)ncnc2c1 [AZD2811],Bliss excess,U-698-M [1]; [4],-0.0275
same,combination Emax,U-698-M [2]; [4],0.138
CN(CCO)CC[C@H](CSc1ccccc1)Nc1ccc(S(=O)(=O)NC(=O)c2ccc(N3CCC([C@@H](O)c4ccccc4-c4ccc(Cl)cc4)CC3)cc2)cc1S(=O)(=O)C(F)(F)F [AZD4320] + CN(C)CCCOc1ccc(-c2ccc3ncc4c(c3c2)n(C2CCOCC2)c(=O)n4C)cn1 [AZD0156],Bliss excess,U-698-M [1]; [4],-0.0291
same,combination Emax,U-698-M [2]; [4],0.183
CN(CCO)CC[C@H](CSc1ccccc1)Nc1ccc(S(=O)(=O)NC(=O)c2ccc(N3CCC([C@@H](O)c4ccccc4-c4ccc(Cl)cc4)CC3)cc2)cc1S(=O)(=O)C(F)(F)F [AZD4320] + CS(=O)(=O)CCNCc1ccc(-c2ccc3ncnc(Nc4ccc(OCc5cccc(F)c5)c(Cl)c4)c3c2)o1 [Lapatinib],Bliss excess,U-698-M [1]; [5],-0.0415
same,combination Emax,U-698-M [2]; [5],0.551
CN(CCO)CC[C@H](CSc1ccccc1)Nc1ccc(S(=O)(=O)NC(=O)c2ccc(N3CCC([C@@H](O)c4ccccc4-c4ccc(Cl)cc4)CC3)cc2)cc1S(=O)(=O)C(F)(F)F [AZD4320] + C[C@@H]1COCCN1C2=NC(=NC(=C2)C3(CC3)[S@](=N)(=O)C)C4=C5C=CNC5=NC=C4 [AZD6738],Bliss excess,U-698-M [1]; [5],-0.0427
same,combination Emax,U-698-M [2]; [5],0.773
CN(CCO)CC[C@H](CSc1ccccc1)Nc1ccc(S(=O)(=O)NC(=O)c2ccc(N3CCC([C@@H](O)c4ccccc4-c4ccc(Cl)cc4)CC3)cc2)cc1S(=O)(=O)C(F)(F)F [AZD4320] + C[C@@H](Nc1cc(F)cc(F)c1)c1cc(C(=O)N(C)C)cc2c(=O)cc(N3CCOCC3)oc12 [AZD8186],Bliss excess,U-698-M [1]; [9],0.0074
same,combination Emax,U-698-M [2]; [9],0.348
CN(CCO)CC[C@H](CSc1ccccc1)Nc1ccc(S(=O)(=O)NC(=O)c2ccc(N3CCC([C@@H](O)c4ccccc4-c4ccc(Cl)cc4)CC3)cc2)cc1S(=O)(=O)C(F)(F)F [AZD4320] + Cc1cc2ncnn2cc1Nc1ncc2c(n1)n(C1CCOCC1)c(=O)n2C [AZD7648],Bliss excess,U-698-M [1]; [5],-0.016
same,combination Emax,U-698-M [2]; [5],0.415
CN(CCO)CC[C@H](CSc1ccccc1)Nc1ccc(S(=O)(=O)NC(=O)c2ccc(N3CCC([C@@H](O)c4ccccc4-c4ccc(Cl)cc4)CC3)cc2)cc1S(=O)(=O)C(F)(F)F [AZD4320] + Cn1cnc2c(F)c(Nc3ccc(Br)cc3Cl)c(C(=O)NOCCO)cc21 [Selumetinib],Bliss excess,U-698-M [1]; [9],0.058
same,combination Emax,U-698-M [2]; [9],0.42
CN(CCO)CC[C@H](CSc1ccccc1)Nc1ccc(S(=O)(=O)NC(=O)c2ccc(N3CCC([C@@H](O)c4ccccc4-c4ccc(Cl)cc4)CC3)cc2)cc1S(=O)(=O)C(F)(F)F [AZD4320] + Nc1ccn([C@@H]2O[C@H](CO)[C@@H](O)C2(F)F)c(=O)n1 [Gemcitabine],Bliss excess,U-698-M [1]; [10],-0.0159
same,combination Emax,U-698-M [2]; [10],0.595
COc1nnc2ccc(N3CCC(c4ccc(OCCN5CCN(C)C(=O)[C@H]5C)cc4)CC3)nn12 [AZD5153] + C=CCn1c(=O)c2cnc(Nc3ccc(N4CCN(C)CC4)cc3)nc2n1-c1cccc(C(C)(C)O)n1 [AZD1775],Bliss excess,U-698-M [1]; [3],-0.0574
same,combination Emax,U-698-M [2]; [3],0.961
COc1nnc2ccc(N3CCC(c4ccc(OCCN5CCN(C)C(=O)[C@H]5C)cc4)CC3)nn12 [AZD5153] + CC1(C)CCC(CN2CCN(c3ccc(C(=O)NS(=O)(=O)c4ccc(NCC5CCOCC5)c([N+](=O)[O-])c4)c(Oc4cnc5[nH]ccc5c4)c3)CC2)=C(c2ccc(Cl)cc2)C1 [Venetoclax],Bliss excess,U-698-M [1]; [4],-0.0463
same,combination Emax,U-698-M [2]; [4],0.671
COc1nnc2ccc(N3CCC(c4ccc(OCCN5CCN(C)C(=O)[C@H]5C)cc4)CC3)nn12 [AZD5153] + CCN(CCO)CCCOc1ccc2c(Nc3cc(CC(=O)Nc4cccc(F)c4)[nH]n3)ncnc2c1 [AZD2811],Bliss excess,U-698-M [1]; [4],-0.0563
same,combination Emax,U-698-M [2]; [4],0.673
Cc1c2c(nn1C)CSCc1cc(n(C)n1)CSc1cc(c3ccccc3c1)OCCCc1c(C(=O)O)n(C)c3c-2c(Cl)ccc13 [AZD5991] + C=CCn1c(=O)c2cnc(Nc3ccc(N4CCN(C)CC4)cc3)nc2n1-c1cccc(C(C)(C)O)n1 [AZD1775],combination Emax,"U-698-M [2]; first compound max 1 µM, partner max 1 µM, may be a limit of the assay",1
